# Test results published in patent US12129265B2, “Therapeutic agents and uses thereof” (Ankh Life Sciences Limited, priority 2020, dated 2024).
# Like-named read-outs stand apart in the source and are kept apart here.
# Columns and labels:
# Experiment in all cases: CellTiter-Glo in vitro cell proliferation assay, Example 8
# Type in all cases: cell-based, Human
# [1] = test system: A2780 cells; settings: A2780, Ovarian, read-out: Mean IC50
# Procedure: (§1) In this Example, in vitro cell proliferation assays were performed using: (1) Human Myeloma tumor cell lines; (2) Human Lymphoma tumor cell lines; (3) Solid Human tumor cell lines; and (4) Parental, Lenalidomide resistant and Bortezomib resistant Jeko-1 Mantle cell Lymphoma tumor cell lines. The compounds tested were three diharmaline compounds, namely the 518B562 (or simply 562), 560, and 561 compounds. In addition, a monoharmaline product designated as 518F014 was also tested. This monoharmaline product had the following structure:
# (§2) Each proliferation assay was carried out as follows. The test cells were plated in growth media using a 384-well microtiter plate at 50 μL volume. The cells were incubated for 24 hours at 37° C. in a humidified incubator. After 24 hours of incubation, the test compounds were added to the test wells in DSMO solvent, at concentrations ranging from 0.0075-100 μM. Control wells received equal volumes of DSMO, without compound. Following drugging, the cells were incubated for 72 hours at 37° C. in a humidified incubator. After this exposure, 100 μL of a 1:1 mixture of sterile water and CellTiter-Glo® reagent (Promega) was added to each well. The plates were then incubated for 60 minutes at room temperature, followed by recording the luminescence value of each well using a luminometer as a measure of cell proliferation.
# [2] = test system: H1975 (EGFR mut) cells; settings: read-out: Mean IC50
# Procedure: as §1, §2
# [3] = test system: BxPC-3 cells; settings: BxPC-3, Pancreatic, read-out: Mean IC50
# Procedure: as §1, §2
# [4] = test system: MDA-MB-468 cells; settings: MDA-MB-468, TNBC, read-out: Mean IC50
# Procedure: as §1, §2
# [5] = test system: FaDu cells; settings: H&N - SC, read-out: Mean IC50
# Procedure: as §1, §2
# [6] = test system: KMM-1 cells; settings: KMM-1, HMCL-A, read-out: Mean IC50
# Procedure: as §1, §2
# [7] = test system: DOHH-2 cells; settings: DoHH-2, GCB-DLBCL, read-out: Mean IC50
# Procedure: as §1, §2
# [8] = test system: A498 cells; settings: A498, RCC, read-out: Mean IC50
# Procedure: as §1, §2
# [9] = test system: HCC70 cells; settings: HCC70, TNBC, read-out: Mean IC50
# Procedure: as §1, §2
# [10] = test system: ASPC-1 cells; settings: ASPC-1, Pancreatic, read-out: Mean IC50
# Procedure: as §1, §2
# [11] = test system: JIM1 cells; settings: JIM1, HMCL, read-out: Mean IC50
# Procedure: as §1, §2
# [12] = test system: H1650 (EGFR mut) cells; settings: read-out: Mean IC50
# Procedure: as §1, §2
# [13] = test system: KMS-34 cells; settings: KMS-34, HMCL-B, read-out: Mean IC50
# Procedure: as §1, §2
# [14] = test system: MDA-MB-231 cells; settings: MDA-MB-231, TNBC, read-out: Mean IC50
# Procedure: as §1, §2
# [15] = test system: SiHA cells; settings: Cervical - SC, read-out: Mean IC50
# Procedure: as §1, §2
# [16] = test system: MIA PaCa-2 cells; settings: MIA PaCa-2, Pancreatic, read-out: Mean IC50
# Procedure: as §1, §2
# [17] = test system: HEC-1a cells; settings: Endometrial, read-out: Mean IC50
# Procedure: as §1, §2
# [18] = test system: OCI-LY3 cells; settings: OCI-LY3, ABC-DLBCL, read-out: Mean IC50
# Procedure: as §1, §2
# [19] = test system: AN3CA cells; settings: Endometrial, read-out: Mean IC50
# Procedure: as §1, §2
# [20] = test system: L363 cells; settings: L363, PCL/MM, read-out: Mean IC50
# Procedure: as §1, §2
# [21] = test system: A2780CP cells; settings: Ovarian, read-out: Mean IC50
# Procedure: as §1, §2
# [22] = test system: MOLP-8 cells; settings: MOLP-8, MM IgD, read-out: Mean IC50
# Procedure: as §1, §2
# [23] = test system: RPMI-8226 cells; settings: RPMI-8226, HMM
# Procedure: as §2
# In this example, different cell lines were subjected to in vitro cell proliferation assays as described in Example 8. In particular, the cell lines are identified in the following Table 17, and the tissue types were: Pancreatic; Endometrial; Triple-Negative Breast Cancer (TNBC); Non-Small-Cell Lung Carcinoma (NSCLC); Ovarian; Renal Cell Carcinoma (RCC); Cervical-Squamous Cell; […] (H&N-Squamous Cell); Germinal Center B Cell-Like Novo Diffuse Large B-Cell Lymphoma (GCB-DLBCL); Activated B-Cell—Diffuse Large B Cell Lymphoma (ABC-DLBCL); Human Myeloma; Human Myeloma Cell Line Lymphocyte-Like; Human Myeloma Cell Line Lymphocyte-Like Myeloma Pleural Effusion Infiltration; Human Multiple Myeloma; Plasma Cell Leukemia/Multiple Myeloma Epstein-Barr Nuclear Antigen-Negative (EBNA-Negative) and to Express mRNA for Proto-Oncogene B-Cell Lymphoma 2 (BCL2); Multiple Myeloma from Peripheral Blood Type IgD Lmabda.
structure (smiles),measurement,setting,value
COc1ccc2c3c([nH]c2c1)C(CC(CC1=NCCc2c1[nH]c1cc(OC)ccc21)c1cc(Br)c(O)c(OC)c1)=NCC3 [compound 12],IC50,[1],21.2 µM
same,IC50,[2]; NSCLC,13 µM
same,IC50,[3],11.3 µM
same,IC50,[4],11.6 µM
same,IC50,[5],18.2 µM
same,IC50,[6],10.6 µM
same,IC50,[7],3.72 µM
same,IC50,[8],40.9 µM
same,IC50,[9],22 µM
same,IC50,[10],31.3 µM
same,IC50,[11],6.04 µM
same,IC50,[12]; NSCLC,21.6 µM
same,IC50,[13],7.19 µM
same,IC50,[14],11.3 µM
same,IC50,[15],50.2 µM
same,IC50,[16],11.7 µM
same,IC50,[17],24.8 µM
same,IC50,[18],11.3 µM
same,IC50,[19],5.36 µM
same,IC50,[20],10.9 µM
same,IC50,[21],20.5 µM
same,IC50,[22],3.88 µM
same,IC50,[23],10.2 µM
COc1ccc2c3c([nH]c2c1)C(CC(CC1=NCCc2c1[nH]c1cc(OC)ccc21)c1cc(O)c(OC)c(OC)c1)=NCC3 [compound 11],IC50,[1],18.3 µM
same,IC50,[2]; NSCLC,19.5 µM
same,IC50,[3],11.5 µM
same,IC50,[4],12.2 µM
same,IC50,[5],16.4 µM
same,IC50,[6],12.1 µM
same,IC50,[7],4.32 µM
same,IC50,[8],51.3 µM
same,IC50,[9],27.2 µM
same,IC50,[10],21.9 µM
same,IC50,[11],11.5 µM
same,IC50,[12]; NSCLC,26.2 µM
same,IC50,[13],11.1 µM
same,IC50,[14],13.5 µM
same,IC50,[15],15.9 µM
same,IC50,[16],11.7 µM
same,IC50,[17],36.3 µM
same,IC50,[18],11.3 µM
same,IC50,[19],8.74 µM
same,IC50,[20],11.6 µM
same,IC50,[21],24.9 µM
same,IC50,[22],10.8 µM
same,IC50,[23],10.1 µM
COc1ccc2c3c([nH]c2c1)C(CC(CC1=NCCc2c1[nH]c1cc(OC)ccc21)c1ccc(Cl)cc1)=NCC3 [compound 27],IC50,[1],8.09 µM
same,IC50,[2]; NSCLC,11.5 µM
same,IC50,[3],4.61 µM
same,IC50,[4],10.8 µM
same,IC50,[5],11.2 µM
same,IC50,[6],7.18 µM
same,IC50,[7],2.52 µM
same,IC50,[8],11.7 µM
same,IC50,[9],11.4 µM
same,IC50,[10],7.34 µM
same,IC50,[11],11.4 µM
same,IC50,[12]; NSCLC,11.3 µM
same,IC50,[13],4.44 µM
same,IC50,[14],7.39 µM
same,IC50,[15],11.6 µM
same,IC50,[16],5.83 µM
same,IC50,[17],11.7 µM
same,IC50,[18],9.27 µM
same,IC50,[19],4.36 µM
same,IC50,[20],7.83 µM
same,IC50,[21],11.1 µM
same,IC50,[22],3.97 µM
same,IC50,[23],3.21 µM
COc1ccc2c3c([nH]c2c1)C(CC(CC1=NCCc2c1[nH]c1cc(OC)ccc21)c1ccc(OC)c(O)c1I)=NCC3 [compound 14],IC50,[1],21.2 µM
same,IC50,[2]; NSCLC,33.6 µM
same,IC50,[3],21 µM
same,IC50,[4],16.9 µM
same,IC50,[5],19.2 µM
same,IC50,[6],23.9 µM
same,IC50,[7],7.9 µM
same,IC50,[8],54.7 µM
same,IC50,[9],33.3 µM
same,IC50,[10],53.1 µM
same,IC50,[11],17.9 µM
same,IC50,[12]; NSCLC,25.4 µM
same,IC50,[13],14.6 µM
same,IC50,[14],32.4 µM
same,IC50,[15],51.9 µM
same,IC50,[16],22.2 µM
same,IC50,[17],28.7 µM
same,IC50,[18],15.4 µM
same,IC50,[19],9.05 µM
same,IC50,[20],23.4 µM
same,IC50,[21],24.3 µM
same,IC50,[22],10.1 µM
same,IC50,[23],7.53 µM
COc1ccc2c3c([nH]c2c1)C(CC(CC1=NCCc2c1[nH]c1cc(OC)ccc21)c1c(F)c(F)c(F)c(F)c1F)=NCC3 [compound 24],IC50,[1]; Homo sapiens,10.6 µM
same,IC50,"[2]; Homo sapiens, NCI-H1975, NSCLC",11.7 µM
same,IC50,[3]; Homo sapiens,10.8 µM
same,IC50,[4]; Homo sapiens,16.6 µM
same,IC50,[5]; Homo sapiens,11.7 µM
same,IC50,[6]; Homo sapiens,11.3 µM
same,IC50,[7]; Homo sapiens,5.58 µM
same,IC50,[8]; Homo sapiens,83.8 µM
same,IC50,[9]; Homo sapiens,25.7 µM
same,IC50,"[10]; Homo sapiens, ASPC1",32.7 µM
same,IC50,[11]; Homo sapiens,56.1 µM
same,IC50,"[12]; Homo sapiens, NCI-H1650, NSCLC",12.5 µM
same,IC50,[13]; Homo sapiens,7.84 µM
same,IC50,[14]; Homo sapiens,20.7 µM
same,IC50,[15]; Homo sapiens,58.9 µM
same,IC50,[16]; Homo sapiens,13 µM
same,IC50,[17]; Homo sapiens,48.2 µM
same,IC50,[18]; Homo sapiens,11.4 µM
same,IC50,"[19]; Homo sapiens, AN3-CA",11.2 µM
same,IC50,"[20]; Homo sapiens, L-363",13.2 µM
same,IC50,"[21]; Homo sapiens, A2780C/P",17.8 µM
same,IC50,[22]; Homo sapiens,10.6 µM
same,IC50,[23]; Homo sapiens,5.05 µM
COc1ccc2c3c([nH]c2c1)C(CC(CC1=NCCc2c1[nH]c1cc(OC)ccc21)c1ccccc1OC)=NCC3 [compound 1],IC50,[1],5.9 µM
same,IC50,[2]; NSCLC,6.54 µM
same,IC50,[3],4.3 µM
same,IC50,[4],4.39 µM
same,IC50,[5],5.36 µM
same,IC50,[6],4.2 µM
same,IC50,[7],2.25 µM
same,IC50,[8],9.91 µM
same,IC50,[9],8.02 µM
same,IC50,[10],6.44 µM
same,IC50,[11],4.51 µM
same,IC50,[12]; NSCLC,8.18 µM
same,IC50,[13],4.15 µM
same,IC50,[14],5.72 µM
same,IC50,[15],9.44 µM
same,IC50,[16],3.67 µM
same,IC50,[17],9.27 µM
same,IC50,[18],3.42 µM
same,IC50,[19],2.5 µM
same,IC50,[20],2.62 µM
same,IC50,[21],4.45 µM
same,IC50,[22],1.98 µM
same,IC50,[23],1.87 µM
COc1ccc2c3c([nH]c2c1)C(CC(CC1=NCCc2c1[nH]c1cc(OC)ccc21)c1cc(F)cc(F)c1)=NCC3 [compound 22],IC50,[1],9.16 µM
same,IC50,[2]; NSCLC,11.5 µM
same,IC50,[3],5.37 µM
same,IC50,[4],11.5 µM
same,IC50,[5],11.1 µM
same,IC50,[6],6.21 µM
same,IC50,[7],4.26 µM
same,IC50,[8],21.6 µM
same,IC50,[9],13.2 µM
same,IC50,[10],8.61 µM
same,IC50,[11],7.35 µM
same,IC50,[12]; NSCLC,11.1 µM
same,IC50,[13],3.9 µM
same,IC50,[14],7.12 µM
same,IC50,[15],11.7 µM
same,IC50,[16],5.93 µM
same,IC50,[17],11.8 µM
same,IC50,[18],9.73 µM
same,IC50,[19],4.15 µM
same,IC50,[20],6.12 µM
same,IC50,[21],9.3 µM
same,IC50,[22],3.83 µM
same,IC50,[23],2.06 µM
